Activity calls are given as the source filed them. The rule behind the calls is not given here.
How the values were obtained:
[1] = molecular target: Ribonucleoside-diphosphate reductase RR1 (Homo sapiens) (UniProt P23921+Q7LG56+P31350); assay: (§1) Inhibition of mammalian ribonucleotide reductase (mRR); assay type: protein-complex assay
[2] = molecular target: T1, Ribonucleoside-diphosphate reductase RR1 (Homo sapiens, UniProt P23921+P31350+Q7LG56); assay: as §1; assay type: protein-complex assay
T1 sequence (P23921 whole entry): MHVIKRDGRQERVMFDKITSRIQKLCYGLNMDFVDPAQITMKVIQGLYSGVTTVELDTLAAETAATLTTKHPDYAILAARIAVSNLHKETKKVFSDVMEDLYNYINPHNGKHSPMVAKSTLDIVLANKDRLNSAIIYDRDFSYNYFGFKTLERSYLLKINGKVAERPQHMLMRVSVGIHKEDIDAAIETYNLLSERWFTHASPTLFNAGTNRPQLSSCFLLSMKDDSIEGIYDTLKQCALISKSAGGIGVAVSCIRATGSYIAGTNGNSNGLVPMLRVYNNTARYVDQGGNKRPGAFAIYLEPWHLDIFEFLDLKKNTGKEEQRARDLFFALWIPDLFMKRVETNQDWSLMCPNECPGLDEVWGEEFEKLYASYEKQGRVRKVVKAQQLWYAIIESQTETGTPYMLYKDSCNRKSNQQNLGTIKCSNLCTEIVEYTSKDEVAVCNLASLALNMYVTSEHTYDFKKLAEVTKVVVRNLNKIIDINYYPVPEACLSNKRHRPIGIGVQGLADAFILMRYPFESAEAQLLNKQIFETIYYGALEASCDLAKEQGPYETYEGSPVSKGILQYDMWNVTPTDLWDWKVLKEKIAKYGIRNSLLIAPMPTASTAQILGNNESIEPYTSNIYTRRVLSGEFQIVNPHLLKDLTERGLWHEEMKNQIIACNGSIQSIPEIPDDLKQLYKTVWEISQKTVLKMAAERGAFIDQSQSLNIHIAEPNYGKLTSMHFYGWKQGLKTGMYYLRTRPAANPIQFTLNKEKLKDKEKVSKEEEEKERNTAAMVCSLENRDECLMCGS
T1 sequence (Q7LG56 whole entry): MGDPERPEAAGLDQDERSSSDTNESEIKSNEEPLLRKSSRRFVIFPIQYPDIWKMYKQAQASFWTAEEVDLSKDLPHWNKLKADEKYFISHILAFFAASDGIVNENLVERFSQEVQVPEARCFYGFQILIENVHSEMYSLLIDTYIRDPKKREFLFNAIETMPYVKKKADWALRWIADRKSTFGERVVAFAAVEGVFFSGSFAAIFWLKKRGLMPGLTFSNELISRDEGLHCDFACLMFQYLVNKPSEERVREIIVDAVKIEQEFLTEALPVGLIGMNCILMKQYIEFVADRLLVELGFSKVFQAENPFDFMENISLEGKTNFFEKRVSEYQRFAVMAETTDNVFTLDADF
T1 sequence (P31350 whole entry): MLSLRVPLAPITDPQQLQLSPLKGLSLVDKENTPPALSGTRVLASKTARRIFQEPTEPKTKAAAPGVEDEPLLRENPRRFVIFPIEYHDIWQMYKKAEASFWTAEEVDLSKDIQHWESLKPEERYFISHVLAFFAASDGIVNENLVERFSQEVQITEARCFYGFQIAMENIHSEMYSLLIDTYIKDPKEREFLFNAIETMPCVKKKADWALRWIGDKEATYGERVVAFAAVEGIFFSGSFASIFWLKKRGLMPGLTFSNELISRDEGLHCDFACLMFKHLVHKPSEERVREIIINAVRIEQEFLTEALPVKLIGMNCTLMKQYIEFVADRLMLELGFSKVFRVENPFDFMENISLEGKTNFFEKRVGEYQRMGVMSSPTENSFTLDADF

**Q.** `CC(C)CO[C@@H]1CC[C@H](N(C)CC(=O)N[C@@H](CC(=O)O)C(=O)N[C@@H](Cc2ccccc2)C(=O)O)[C@@H](COC(=O)CCC2c3ccccc3-c3ccccc32)O1` was tested. Which Activity [1] did it give?
**A.** inactive

**Q.** With `CC(C)CO[C@@H]1C[C@@H]2[C@@H]([C@@H](COC(=O)CCC3c4ccccc4-c4ccccc43)O1)N(CC(=O)N[C@@H](CC(=O)O)C(=O)N[C@@H](Cc1ccccc1)C(=O)O)C[C@H]2O` as the compound, how does the IC50 [2] read?
**A.** 40 µM

**Q.** How did the Activity [1] turn out when `CC(C)CO[C@@H]1C[C@@H]2[C@@H]([C@@H](COC(=O)COc3ccc4ccccc4c3)O1)N(CC(=O)N[C@@H](CC(=O)O)C(=O)N[C@@H](Cc1ccccc1)C(=O)O)C[C@H]2O` was run?
**A.** inactive

**Q.** With `CC(C)CO[C@@H]1C[C@@H]2[C@@H]([C@@H](COC(=O)CCc3ccccc3)O1)N(CC(=O)N[C@@H](CC(=O)O)C(=O)N[C@@H](Cc1ccccc1)C(=O)O)C[C@H]2O` as the compound, how does the Activity [1] read?
**A.** Active

**Q.** How did the Activity [1] turn out when `CC(C)CO[C@@H]1CC[C@H](N(C)CC(=O)N[C@@H](CC(=O)O)C(=O)N[C@@H](Cc2ccccc2)C(=O)O)[C@@H](COC(=O)CCc2ccccc2)O1` was run?
**A.** inactive

From ChEMBL document CHEMBL1141205, “Design, synthesis, and evaluation of octahydropyranopyrrole-based inhibitors of mammalian ribonucleotide reductase” (Bioorg Med Chem Lett, 2005)
